According to article PMC7529555 (Thoracic Cancer, 2020):

What was measured:
[1] = tested on: osimertinib metabolism in rat liver microsomes; assay: Inhibition by avitinib of osimertinib metabolism in rat liver microsomes; assay type: in vitro ADME; settings: pH 7.4, probe osimertinib 0.01 μM
wild-type EGFR = settings: cited from earlier work
[2] = Pharmacokinetics of osimertinib in rats after pretreatment with avitinib; assay type: in vivo, Sprague-Dawley rats
[3] = tested on: rat liver microsomes (RLM); assay: Metabolic stability of osimertinib in RLMs; assay type: in vitro ADME; settings: osimertinib incubation with RLMs
[4] = Metabolic stability of osimertinib in RLMs; assay type: in vitro ADME, rat; settings: rat, rat liver microsomes, pH 7.4
[5] = avitinib multiple doses group vs control
[6] = avitinib single dose group vs control

## C=CC(=O)Nc1cccc(Oc2nc(Nc3ccc(N4CCN(C)CC4)c(F)c3)nc3[nH]ccc23)c1 [avitinib]
[1]
  IC50: 27.6 µM
wild-type EGFR
  effect on wild-type EGFR: no effects

## C=CC(=O)Nc1cc(Nc2nccc(-c3cn(C)c4ccccc34)n2)c(OC)cc1N(C)CCN(C)C [osimertinib]
[2]; [5]
  decrease of CLz/F vs control: 52%
  increase of AUC(0-t) vs control: 1.91 fold
  increase of AUC(0-∞) vs control: 1.92 fold
  increase of Cmax vs control: 1.66 fold
  increase of MRT(0-t) vs control: 1.39 fold
  increase of Tmax vs control: 1.74 fold
[2]; [6]
  decrease of CLz/F vs control: 44%
  increase of AUC(0-t) vs control: 2.35 fold
  increase of AUC(0-∞) vs control: 2.38 fold
  increase of Cmax vs control: 1.72 fold
  increase of MRT(0-t) vs control: 1.31 fold
  increase of Tmax vs control: 1.48 fold
[3]
  Slope (Ln remaining percent vs incubation time): 0.02062
[4]
  half-life at 0.01 μM: 33.6 min
wild-type EGFR
  inhibitory effect on the wild-type EGFR protein: weak inhibitory effect
